Structures can show the parent of a compound that is named as a salt.
Experiments:
acetylcholinesterase = molecular target: T1, acetylcholinesterase (Rattus norvegicus, UniProt P37136); test: Inhibitory effect on acetylcholinesterase (Ellman method, rat brain homogenate); format: biochemical; conditions: rat brain homogenate as source of acetylcholinesterase; read-out: Acetylcholinesterase inhibition IC50
T1 construct: from tissue; host or cells: rat brain homogenate
T1 sequence (P37136 32-614): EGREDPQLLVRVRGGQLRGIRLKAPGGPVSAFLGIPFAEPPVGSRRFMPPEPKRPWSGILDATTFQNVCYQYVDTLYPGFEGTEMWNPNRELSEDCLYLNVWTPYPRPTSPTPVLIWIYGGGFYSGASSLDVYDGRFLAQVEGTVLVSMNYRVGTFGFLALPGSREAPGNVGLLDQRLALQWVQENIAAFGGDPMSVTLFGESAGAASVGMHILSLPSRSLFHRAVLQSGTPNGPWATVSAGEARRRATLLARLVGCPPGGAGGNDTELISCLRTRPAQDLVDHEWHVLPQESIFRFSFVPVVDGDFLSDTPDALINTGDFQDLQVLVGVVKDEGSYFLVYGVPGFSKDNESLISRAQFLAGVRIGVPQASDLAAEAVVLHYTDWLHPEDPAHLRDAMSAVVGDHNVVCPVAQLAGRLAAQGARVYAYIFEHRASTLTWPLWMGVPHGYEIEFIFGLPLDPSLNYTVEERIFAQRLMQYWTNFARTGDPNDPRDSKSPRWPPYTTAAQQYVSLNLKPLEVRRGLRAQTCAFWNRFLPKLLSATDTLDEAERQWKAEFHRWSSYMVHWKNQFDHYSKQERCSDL
Method: Inhibitory Effect on Acetylcholinesterase
To DTNB (5,5′-dithiobis(2-nitrobenzoic acid)), acethylthiocholine (as a substrate) and a test compound was added the rat brain homogenate and incubated.

sigma receptor [1] = conditions: disclosed in J. Med. Chem. 37, 364 (1994), Neuroscience Lett. 260, 5 (1999), JP-A 11-349481; cited from earlier work
Sigma receptor [2] = test: Sigma receptor binding assay (3H-DTG, guinea pig brain crude membrane fraction); conditions: inhibition of 3H-DTG binding to guinea pig brain crude membrane fraction, 25° C., 1 hour
Method: Sigma Receptor Binding Assay
(1) Preparation of Receptor
Ten male guinea pigs (Crj, Hartley, from Charles River Japan, Inc.) (body weight: 234 g to 260 g) were decapitated, exsanguinated and died. The brain was immediately removed, homogenized with ten volumes of 50 mM Tris-HCl (pH 7.4) using a Teflon homogenizer and was centrifuged at a rate of 50000× g at 4° C. for 20 minutes. The washing procedure was repeated once more under the same conditions, and the resulting crude membrane fraction was subjected to the assay.
The filter paper was transferred to a vial for radioactivity measurement, mixed with 5 mL of a liquid scintillation cocktail (Atomlight, from PACKARD), and the radioactivity on the filter was determined by a liquid scintillation counter (Model 1500, from PACKARD) for 2 minutes. The specific binding and the non-specific binding in the absence of the test compound were determined in the same way as above except for using 50% DMSO solution instead of the test compound and using a 100 μM Haloperidol solution instead of the test compound, respectively.
(3) Determination of Inhibition
The inhibitions of the test compound at individual concentrations were determined from the ratio of the specific binding in the presence of the test compound to the specific binding in the absence thereof. The dose-response curve was regressed according to a logit-log model in which the ratio of the specific binding in the presence of the test compound to the specific binding in the absence thereof was subjected to logit transformation and plotted against the common logarithm value of each concentration.

SMILES	IC50 (acetylcholinesterase)	sigma receptor binding action (sigma receptor [1])	IC50 (Sigma receptor [2])
CCOc1cc2c(cc1OCC)C(=O)C(CC1CCN(Cc3cccc(F)c3)CC1)C2 (centres unmarked) [Example 9, 1-(3-fluorobenzyl)-4-[(5,6-diethoxy-1-indanon)-2-yl]methylpiperidine hydrochloride]	3.4 nM		
COc1cc2c(cc1OC)C(=O)C(CC1CCN(Cc3ccccc3)CC1)C2 (centres unmarked) [1-benzyl-4-[(5,6-dimethoxy-1-indanon)-2-yl]methylpiperidine]		has a sigma receptor binding action	
CCOc1cc2c(cc1OCC)C(=O)C(F)(CC1CCN(Cc3cccc(Cl)c3)CC1)C2 (centres unmarked) [Example 44, 1-(3-chlorobenzyl)-4-[(5,6-diethoxy-2-fluoro-1-indanon)-2-yl]methylpiperidine hydrochloride]	0.75 nM		
COc1cc2c(cc1OCC#N)CC(CC1CCN(Cc3ccccc3)CC1)C2=O (centres unmarked) [Example 7, 1-benzyl-4-[(5-cyanomethoxy-6-methoxy-1-indanon)-2-yl]methylpiperidine hydrochloride]	2.4 nM		
CCOc1cc2c(cc1OC)CC(F)(CC1CCN(Cc3ccccc3)CC1)C2=O (centres unmarked) [Example 37, 1-benzyl-4-[(6-ethoxy-2-fluoro-5-methoxy-1-indanon)-2-yl]methylpiperidine hydrochloride]	0.73 nM		4.3 nM
CCCOc1cc2c(cc1OC)C(=O)C(CC1CCN(Cc3ccccc3)CC1)C2 (centres unmarked) [Example 2, 1-benzyl-4-[[5-methoxy-6-(1-propyloxy)-1-indanon]-2-yl]methylpiperidine hydrochloride]	2.7 nM		
CCOc1cc2c(cc1OCC)C(=O)C(F)(CC1CCN(CC3CCCCC3)CC1)C2 (centres unmarked) [Example 50, 1-cyclohexylmethyl-4-[(5,6-diethoxy-2-fluoro-1-indanon)-2-yl]methylpiperidine hydrochloride]	1.9 nM		
CCOc1cc2c(cc1OC)CC(CC1CCN(Cc3ccccc3)CC1)C2=O (centres unmarked) [Example 1, 1-benzyl-4-[(6-ethoxy-5-methoxy-1-indanon)-2-yl]methylpiperidine hydrochloride]	7.2 nM		5.1 nM
CCOc1cc2c(cc1OCC)C(=O)C(CC1CCN(Cc3cccc(C)c3)CC1)C2 (centres unmarked) [Example 15, 1-(3-methylbenzyl)-4-[(5,6-diethoxy-1-indanon)-2-yl]methylpiperidine hydrochloride]	9.1 nM		
CCOc1cc2c(cc1OCC)C(=O)C(F)(CC1CCN(Cc3cccc(C)c3)CC1)C2 (centres unmarked) [Example 47, 1-(3-methylbenzyl)-4-[(5,6-diethoxy-2-fluoro-1-indanon)-2-yl]methylpiperidine hydrochloride]	1 nM		
COc1cc2c(cc1OC)C(=O)C(C1CCN(Cc3ccccc3)CC1)C2 (centres unmarked) [1-benzyl-4-(5,6-dimethoxy-1-indanon)-2-yl]piperidine]		has a sigma receptor binding action	
CCOc1cc2c(cc1OC)C(=O)C(F)(CC1CCN(Cc3ccccc3)CC1)C2 (centres unmarked) [Example 38, 1-benzyl-4-[(5-ethoxy-2-fluoro-6-methoxy-1-indanon)-2-yl]methylpiperidine hydrochloride]	0.28 nM		
